# Laboratory results published in patent US12570661B2, “Isoform-specific aldehyde dehydrogenase inhibitors” (The Board of Trustees of the Leland Stanford Junior …, priority 2020, dated 2026).
# Key:
# [1] = tested on: NIH-3T3 cells; assay: Seahorse oxygen-consumption-rate assay (NIH3T3); format: cell-based, murine; conditions: Mus musculus
# [2] = HEK-293T cytotoxicity (cell viability) assay; format: cell-based; conditions: human, HEK-293T cells; adherent HEK-293T, 4-5 days, CellTiter-Glo; read-out: HEK293T GI50
# Procedure: HEK-293T cells were seeded into a 96-well plate at a density of 5×10^3 cells/well and treated with varying concentrations of selected compounds or an equivalent amount of DMSO vehicle. The cells were cultured for 4-5 days without a media change, and after the DMSO-treated cells approached 100% confluence, the cell viabilities were measured using a CellTiter-Glo 3D Cell Viability Assay kit (Promega) and a Veritas microplate luminometer (Turner BioSystems) as described above.
# [3] = biological target: T1, ALDH1B1 (Homo sapiens, UniProt P30837); assay: ALDEFLUOR assay of cellular ALDH1B1 activity in ALDH1B1-transfected ALDH1A3−/− A375 cells; format: cell-based; conditions: for IC50: ALDEFLUOR, ALDH1B1-overexpressing ALDH1A3−/− A375 cells, read-out: ALDH1B1(in cellulo) IC50
# T1 sequence (P30837 18-517): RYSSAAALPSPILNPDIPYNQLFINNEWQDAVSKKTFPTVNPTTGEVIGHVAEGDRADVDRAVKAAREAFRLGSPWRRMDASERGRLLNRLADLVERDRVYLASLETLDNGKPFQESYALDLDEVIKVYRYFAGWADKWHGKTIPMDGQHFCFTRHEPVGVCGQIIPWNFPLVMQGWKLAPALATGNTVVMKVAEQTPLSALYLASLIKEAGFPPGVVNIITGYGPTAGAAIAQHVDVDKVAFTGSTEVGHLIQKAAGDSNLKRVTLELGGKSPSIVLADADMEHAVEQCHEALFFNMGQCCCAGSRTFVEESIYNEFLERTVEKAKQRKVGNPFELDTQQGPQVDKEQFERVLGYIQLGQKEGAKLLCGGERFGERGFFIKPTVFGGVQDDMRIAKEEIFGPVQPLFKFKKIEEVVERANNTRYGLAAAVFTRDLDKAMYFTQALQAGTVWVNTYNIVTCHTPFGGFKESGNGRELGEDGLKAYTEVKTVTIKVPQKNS
# Procedure: ALDH1A3^−/− A375 cells were seeded into a 6-well plate at a density of 5×10^5 cells/well and cultured for 24 h. The cells were then transfected with either pCMV6-entry, pCMV6-GFP (Addgene, plasmid 11153), or pCMV-ALDH1B1. After 24 h, the media was replaced and transfection efficiencies were estimated by the EGFP-positive cells in the pCMV-GFP-transfected well. The cells were cultured for another 24 h and their ALDH activities were quantified using the ALDEFLUOR assay. Briefly, the cells were isolated from the plate with trypsin and resuspended in ALDEFLUOR assay buffer (STEMCELL Technologies) at a concentration of 4×10^5 cells/mL. Each ALDEFLUOR assay used 0.5 mL of this cell suspension, and the cells were treated with individual compounds for 15 min at 37° C. and 5% CO2. The cell suspensions were then treated with 2.5 μL ALDEFLUOR reagent and incubated for an additional 30 min at 37° C. and 5% CO2. The cells were then collected by centrifugation (450×g) for 5 min at room temperature, resuspended in 200 μL assay buffer, and analyzed with an LSR II flow cytometer (BD Biosciences) at the Stanford FACS facility.
SMILES,IC50 [3] [nM],effect on ALDH1B1-dependent ALDEFLUOR signal (cellular ALDH1B1 activity) ([3]; flow cytometry),IC50 [1] [nM],GI50 [2] [nM]
COc1ccccc1C1=CN(c2ccc(-c3ccccc3)cc2)C2=NCCCN12 [STL5-T-0002],110,,850,8900
COc1ccccc1-n1cc(-c2ccccn2)[n+]2c1CCCCC2 [Compound 63],,had no effect,,
COc1ccccc1C1=CN(c2ccc(-c3ccccc3)cc2)C2=NCCCCN12 [HPI-273],35,,190,2800

# Continued, in another order:
IC50 [3] [nM],effect on ALDH1B1-dependent ALDEFLUOR signal (cellular ALDH1B1 activity) ([3]; flow cytometry),SMILES,IC50 [1] [nM],GI50 [2] [nM]
22,,COc1ccccc1-c1ccc(-c2cn(-c3ccccc3OC)c3[n+]2CCCCC3)cc1.[Br-] [Imidazolium 8],130,160
38,,COc1ccccc1-n1cc(-c2ccc(-c3ccccc3)cc2)[n+]2c1CCCCC2 [Imidazolium 2],180,230
